In patent US20250082931A1, “Treating Gastric Cancer Using TTFields Combined with XELOX, FOLFOX or the Individual Constituents Thereof” (Novocure GmbH, priority 2019, published 2025):

How the values were obtained:
AGS cells [1] = assay: Apoptosis analysis by Annexin V / 7AAD staining; format: cell-based; settings: 72 h
Description: After 72 h of treatment the media and the cells were collected, and cytotoxicity was determined by cell counts. Cells (including cells from the media) were stained for Annexin V and 7AAD for apoptosis analysis. For the testing of the clonogenic effect, cells were seeded for colonies.
(§1) Cells were seeded on inovitro dishes and petri dishes 24 h before starting the experiments. Media containing the indicated concentration of each chemotherapy component alone or FOLFOX and control media was added to the cells and the dishes were connected to TTFields (as in SOP-BI-009) or grown in 37° C., 5% CO2 for 72 h. Each treatment included 8 repeats (8 dishes). The media was replaced every 24 h. At the end of the experiment the cells were collected, and cytotoxicity was determined by cell counts, small number of cells were seeded for colonies and the cells (including cells from the media) were stained for Annexin V and 7AAD for apoptosis analysis.
Apoptotic effect: Average of cell fraction of each marker staining (Annexin V and 7AAD) of at least 5 dishes from each treatment was calculated in Excel software. The averages from these repeats was calculated to averages and is presented in stacked bar graph using GraphPed software.

AGS cells [2] = assay: Cytotoxic effect by cell count after 72 h, with and without TTFields
Description: (§2) During the treatment the media of all dishes was replaced every 24 h (“hours”).
(§3) After 72 h of treatment the media and the cells were collected, and cytotoxicity was determined by cell counts.
as §1
(§4) A TTFields generator (Inovitro systems) was used to apply the treatment to the cells.
(§5) Cytotoxic effect: Average and standard deviation of cell number of at least 5 dishes from each treatment was calculated in Excel software. The averages from these repeats was calculated to averages and standard error and is presented as percent from control (no drug treatment) in XY graph of points with error bars using GraphPed software. Significant was determine by 2-way ANOVA followed Multiple comparison using GraphPed software.

AGS cells [3] = assay: Overall effect (cytotoxic effect x clonogenic effect); format: cell-based; settings: for overall effect (colonies count multiplying the cytotoxic effect): 72 h
Description: (§6) After 6-14 days the colonies were fixed, stained and counted to determine clonogenic effect. The overall effect was calculated by multiplying the cytotoxic effect and the clonogenic effect.
Overall effect: Each colony number was multiply in the percent of cytotoxic effect of its dish and averages and standard deviations of each treatment were calculated in Excel software. […] Significant was determine by 2-way ANOVA followed Multiple comparison using GraphPed software.

AGS cells [4] = assay: Clonogenic effect (colonies count); format: cell-based; settings: for colonies count: 72 h
Description: (§7) After 72 h of treatment the media and the cells were collected, and cytotoxicity was determined by cell counts. […] For the testing of the clonogenic effect, cells were seeded for colonies.
as §6
(§8) Clonogenic effect: The colonies from each well were counted using ImageJ software. Average and standard deviation of colony number of at least 5 wells from each treatment were calculated in excel software. The averages from these repeats was calculated to averages and standard errors and is presented as percent from control (no drug treatment) in XY graph of points with error bars using GraphPed software. Significant was determine by 2-way ANOVA followed Multiple comparison using GraphPed software.

KATO III cells [5] = assay: Cytotoxic effect by cell count after 72 h, with and without TTFields
Description: as §2, §3, §1, §4, §5

KATO III cells [6] = assay: Clonogenic effect (colonies count); settings: for colonies count: 72 h;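 for all read-outs here: after treatment, KATO III cells were reseeded and grown 6–14 days, then colonies were fixed, stained and counted, expressed as percent of untreated (no drug) control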
Description: as §7, §6, §8

AGS cells [7] = system: AGS cells
Description: as §2, §3, §1, §4, §5

KATO III cells [8] = system: KATO III cells
Description: as §2, §3, §1, §4, §5

[9] = 13.5 uM, + TTFields 150 kHz 1.0 V/cm
[10] = FOLFOX experiment, 0.5 uM, + TTFields 150 kHz 1.0 V/cm
[11] = FOLFOX experiment, 0.5 uM, no TTFields
[12] = 0.5 uM, + TTFields 150 kHz 1.0 V/cm
[13] = 1.5 uM, + TTFields 150 kHz 1.0 V/cm
[14] = 4.5 uM, + TTFields 150 kHz 1.0 V/cm
[15] = 40 uM, + TTFields 150 kHz 1.0 V/cm
[16] = 1.5 uM, + TTFields 150 kHz 1.6 V/cm
[17] = 4.5 uM, + TTFields 150 kHz 1.6 V/cm
[18] = 13.5 uM, + TTFields 150 kHz 1.6 V/cm
[19] = 40 uM, + TTFields 150 kHz 1.6 V/cm

For O=c1[nH]cc(F)c(=O)[nH]1 [5-FU, 5-fluorouracil], the “AnnV+ 7AAD+ cell fraction” value (AGS cells [1]; [9]) was 14.45%, the “AnnV+ 7AAD− cell fraction” value (AGS cells [1]; [9]) was 8.70% and the “AnnV− 7AAD+ cell fraction” value (AGS cells [1]; [9]) was 2.63%. For the same molecule, the “AnnV− 7AAD− cell fraction” value (AGS cells [1]; [9]) was 74.20%, the “AnnV+ 7AAD+ cell fraction” value (AGS cells [1]; 13.5 uM, no TTFields) was 8.45% and the “AnnV+ 7AAD− cell fraction” value (AGS cells [1]; 13.5 uM, no TTFields) was 6.20%. The “AnnV− 7AAD+ cell fraction” value (AGS cells [1]; 13.5 uM, no TTFields) was 0.90%, the “AnnV− 7AAD− cell fraction” value (AGS cells [1]; 13.5 uM, no TTFields) was 84.45% and the “AnnV+ 7AAD+ cell fraction” value (AGS cells [1]; [10]) was 10.3%. The “AnnV+ 7AAD− cell fraction” value (AGS cells [1]; [10]) was 7.3%, the “AnnV− 7AAD+ cell fraction” value (AGS cells [1]; [10]) was 1.7% and the “AnnV− 7AAD− cell fraction” value (AGS cells [1]; [10]) was 80.8%. The “AnnV+ 7AAD+ cell fraction” value (AGS cells [1]; [11]) was 4.3%, the “AnnV+ 7AAD− cell fraction” value (AGS cells [1]; [11]) was 4.8% and the “AnnV− 7AAD+ cell fraction” value (AGS cells [1]; [11]) was 1.8%. The “AnnV− 7AAD− cell fraction” value (AGS cells [1]; [11]) was 89.1%, the cell count (AGS cells [2]; [12]) was 61 % from control and the cell count (AGS cells [2]; 0.5 uM, no TTFields) was 90 % from control. The cell count (AGS cells [2]; [13]) was 47 % from control, the cell count (AGS cells [2]; 1.5 uM, no TTFields) was 83 % from control and the cell count (AGS cells [2]; [14]) was 27 % from control. For the same molecule, the cell count (AGS cells [2]; 4.5 uM, no TTFields) was 52 % from control, the cell count (AGS cells [2]; [9]) was 15 % from control and the cell count (AGS cells [2]; 13.5 uM, no TTFields) was 24 % from control. The cell count (AGS cells [2]; [15]) was 19 % from control, the cell count (AGS cells [2]; 40 uM, no TTFields) was 25 % from control and the cell count (AGS cells [2]; [10]) was 61 % from control. For the same molecule, the cell count (AGS cells [2]; [11]) was 79 % from control, the “interaction with TTFields based on the overall effect” value (AGS cells [3]) was “synergistic” and the “overall effect (colonies count multiplying the cytotoxic effect)” value (AGS cells [3]; [12]) was 36 % from control. The “overall effect (colonies count multiplying the cytotoxic effect)” value (AGS cells [3]; 0.5 uM, no TTFields) was 97 % from control, the “overall effect (colonies count multiplying the cytotoxic effect)” value (AGS cells [3]; [13]) was 30 % from control and the “overall effect (colonies count multiplying the cytotoxic effect)” value (AGS cells [3]; 1.5 uM, no TTFields) was 81 % from control. The “overall effect (colonies count multiplying the cytotoxic effect)” value (AGS cells [3]; [14]) was 11 % from control, the “overall effect (colonies count multiplying the cytotoxic effect)” value (AGS cells [3]; 4.5 uM, no TTFields) was 50 % from control and the “overall effect (colonies count multiplying the cytotoxic effect)” value (AGS cells [3]; [9]) was 2 % from control. For the same molecule, the “overall effect (colonies count multiplying the cytotoxic effect)” value (AGS cells [3]; 13.5 uM, no TTFields) was 2 % from control, the “overall effect (colonies count multiplying the cytotoxic effect)” value (AGS cells [3]; [15]) was 0 % from control and the “overall effect (colonies count multiplying the cytotoxic effect)” value (AGS cells [3]; 40 uM, no TTFields) was 0 % from control. The “overall effect (colonies count multiplying the cytotoxic effect)” value (AGS cells [3]; [10]) was 36 % from control, the “overall effect (colonies count multiplying the cytotoxic effect)” value (AGS cells [3]; [11]) was 87 % from control and the colonies count (AGS cells [4]; [12]) was 51 % from control. For the same molecule, the colonies count (AGS cells [4]; 0.5 uM, no TTFields) was 95 % from control, the colonies count (AGS cells [4]; [13]) was 59 % from control and the colonies count (AGS cells [4]; 1.5 uM, no TTFields) was 90 % from control. It also gave a colonies count (AGS cells [4]; [14]) of 35 % from control, a colonies count (AGS cells [4]; 4.5 uM, no TTFields) of 74 % from control and a colonies count (AGS cells [4]; [9]) of 11 % from control. It also gave a colonies count (AGS cells [4]; 13.5 uM, no TTFields) of 9 % from control, a colonies count (AGS cells [4]; [15]) of 0 % from control and a colonies count (AGS cells [4]; 40 uM, no TTFields) of 0 % from control. For the same molecule, the colonies count (AGS cells [4]; [10]) was 59 % from control, the colonies count (AGS cells [4]; [11]) was 100 % from control and the “colonies number (clonogenic effect and overall effect), drug + TTFields compared to drug alone” value (AGS cells [4]; Two-way ANOVA P<0.001) was “significant reduction in colonies number”. For the same molecule, the cell count (KATO III cells [5]; [16]) was 47 % from control, the cell count (KATO III cells [5]; 1.5 uM, no TTFields) was 70 % from control and the cell count (KATO III cells [5]; [17]) was 42 % from control. It also gave a cell count (KATO III cells [5]; 4.5 uM, no TTFields) of 56 % from control, a cell count (KATO III cells [5]; [18]) of 34 % from control and a cell count (KATO III cells [5]; 13.5 uM, no TTFields) of 47 % from control. The cell count (KATO III cells [5]; [19]) was 32 % from control, the cell count (KATO III cells [5]; 40 uM, no TTFields) was 34 % from control and the cell count (KATO III cells [5]; FOLFOX experiment, 1.5 uM, + TTFields 150 kHz 1.6 V/cm) was 50 % from control. For the same molecule, the cell count (KATO III cells [5]; FOLFOX experiment, 1.5 uM, no TTFields) was 73 % from control, the colonies count (KATO III cells [6]; [16]) was 50 % from control and the colonies count (KATO III cells [6]; 1.5 uM, no TTFields) was 83 % from control. For the same molecule, the colonies count (KATO III cells [6]; [17]) was 38 % from control, the colonies count (KATO III cells [6]; 4.5 uM, no TTFields) was 55 % from control and the colonies count (KATO III cells [6]; [18]) was 8 % from control. It also gave a colonies count (KATO III cells [6]; 13.5 uM, no TTFields) of 9 % from control, a colonies count (KATO III cells [6]; [19]) of 1 % from control and a colonies count (KATO III cells [6]; 40 uM, no TTFields) of 2 % from control. For the same molecule, the “colonies number (clonogenic effect and overall effect), drug + TTFields compared to drug alone” value (KATO III cells [6]; Two-way ANOVA P<0.001) was “significant reduction in colonies number”, the “cytotoxic effect of drug + TTFields compared to drug alone” value (AGS cells [7]) was “significantly higher” and the “cytotoxic effect of drug + TTFields compared to drug alone” value (KATO III cells [8]) was “significantly higher”.
